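The concentration for 50% growth inhibition is given as GI50. At the TGI there is no net growth.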
Assays:
Assay in all cases: DTP human tumour cell line panel, 384-well format
[1] = tested on: A498 renal
[2] = tested on: BT-549 breast
[3] = tested on: CAKI-1 renal
[4] = tested on: CCRF-CEM leukemia
[5] = tested on: COLO 205 colon
[6] = tested on: DU-145 prostate
[7] = tested on: EKVX NSCLC
[8] = tested on: HOP-62 NSCLC
[9] = tested on: HS 578T breast
[10] = tested on: HT29 colon
[11] = tested on: IGROV1 ovarian
[12] = tested on: K-562 leukemia
[13] = tested on: LOX IMVI melanoma
[14] = tested on: M14 melanoma
[15] = tested on: MALME-3M melanoma
[16] = tested on: MCF7 breast
[17] = tested on: MDA-MB-231 breast
[18] = tested on: MDA-MB-435 melanoma
[19] = tested on: MDA-MB-468 breast
[20] = tested on: MOLT-4 leukemia
[21] = tested on: NCI-H226 lung
[22] = tested on: NCI-H322M lung
[23] = tested on: NCI-H460 NSCLC
[24] = tested on: NCI-H522 lung

CC(C)(C)C[C@H]1N[C@@H](C(=O)NC2CCC(O)CC2)[C@H](c2cccc(Cl)c2F)[C@@]12C(=O)Nc1cc(Cl)ccc12 (some centres not stated)
GI50 [1]: 0.211 µM
TGI [1]: 3.41 µM
GI50 [2]: 10.1 µM
TGI [2]: 23.2 µM
GI50 [3]: 0.195 µM
TGI [3]: 10.8 µM
GI50 [4]: 3.25 µM
TGI [4]: 10.6 µM
GI50 [5]: 11.7 µM
TGI [5]: 24.1 µM
GI50 [6]: 13 µM
TGI [6]: 25.8 µM
GI50 [7]: 8.97 µM
TGI [7]: 21.5 µM
GI50 [8]: 14.7 µM
TGI [8]: 28 µM
GI50 [9]: 3.21 µM
TGI [9]: 11.9 µM
GI50 [10]: 3.65 µM
TGI [10]: 13.4 µM
GI50 [11]: 6.09 µM
TGI [11]: 20.4 µM
GI50 [12]: 4.1 µM
TGI [12]: 13.6 µM
GI50 [13]: 0.366 µM
TGI [13]: 15.8 µM
GI50 [14]: 5.59 µM
TGI [14]: 20.3 µM
GI50 [15]: 0.229 µM
TGI [15]: 5.03 µM
GI50 [16]: 0.318 µM
TGI [16]: 7.21 µM
GI50 [17]: 9.89 µM
TGI [17]: 22.3 µM
GI50 [18]: 10.2 µM
TGI [18]: 23 µM
GI50 [19]: 2.27 µM
TGI [19]: 9.06 µM
GI50 [20]: 0.0487 µM
TGI [20]: 0.152 µM
GI50 [21]: 0.226 µM
TGI [21]: 1.1 µM
GI50 [22]: 17.2 µM
TGI [22]: 31.1 µM
GI50 [23]: 1.71 µM
TGI [23]: 14.9 µM
GI50 [24]: 3.32 µM
